Measured values as given in PubChem BioAssay AID743384 (Vanderbilt Specialized Chemistry Center, 2014).
Calls of active or inactive are those of the source. No rule for the calls is given here.

Experiments:
[1] = molecular target: Metabotropic glutamate receptor 7 (Rattus norvegicus) (UniProt P35400); experiment: mGlu7 positive allosteric modulators, dose response, cell-based, calcium mobilization, Galpha15 (AID 743384); settings: mGlu7/Ga15, calcium fluorescence PAM; stronger effect = higher value
[2] = molecular target: Metabotropic glutamate receptor 7 (Homo sapiens) (UniProt Q14831); experiment: as above; settings: mGlu7/Ga15, calcium fluorescence PAM
Chain of Metabotropic glutamate receptor 7 (Homo sapiens) (Q14831 whole entry, looked up): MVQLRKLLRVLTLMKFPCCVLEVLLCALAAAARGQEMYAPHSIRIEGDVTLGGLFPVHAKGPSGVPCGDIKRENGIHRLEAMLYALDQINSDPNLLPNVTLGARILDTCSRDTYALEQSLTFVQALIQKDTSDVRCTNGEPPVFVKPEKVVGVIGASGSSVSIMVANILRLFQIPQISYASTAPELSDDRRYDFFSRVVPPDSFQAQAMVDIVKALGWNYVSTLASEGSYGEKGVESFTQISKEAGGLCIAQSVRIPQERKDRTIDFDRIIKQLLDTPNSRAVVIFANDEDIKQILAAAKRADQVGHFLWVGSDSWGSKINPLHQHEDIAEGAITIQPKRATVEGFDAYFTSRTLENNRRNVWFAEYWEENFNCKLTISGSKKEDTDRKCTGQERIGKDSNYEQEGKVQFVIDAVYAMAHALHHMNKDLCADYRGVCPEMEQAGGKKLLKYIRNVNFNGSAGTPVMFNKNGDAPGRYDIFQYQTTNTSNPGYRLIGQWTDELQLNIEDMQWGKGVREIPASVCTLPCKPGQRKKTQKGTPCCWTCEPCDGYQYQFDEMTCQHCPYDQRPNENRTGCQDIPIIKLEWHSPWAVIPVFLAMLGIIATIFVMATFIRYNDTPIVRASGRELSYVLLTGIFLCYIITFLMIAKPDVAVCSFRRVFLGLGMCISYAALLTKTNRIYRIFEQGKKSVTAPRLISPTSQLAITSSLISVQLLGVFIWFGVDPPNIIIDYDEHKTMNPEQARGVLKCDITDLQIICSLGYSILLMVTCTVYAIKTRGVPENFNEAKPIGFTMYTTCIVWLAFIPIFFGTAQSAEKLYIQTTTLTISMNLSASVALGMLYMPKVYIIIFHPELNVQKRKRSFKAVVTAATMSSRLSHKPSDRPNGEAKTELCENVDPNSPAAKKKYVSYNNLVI

Chain of Metabotropic glutamate receptor 7 (Rattus norvegicus) (P35400 whole entry, looked up): as the sequence (Q14831 whole entry, looked up) above, with R5G, A27V, N454H, S488T, A520S, D578N counted along it

% glutamate max response [1]	EC50 [2]	SMILES
inactive	–	COC(=O)c1ccc(-n2c(C)cc(C(=O)CNc3ccc(C(=O)O)cc3)c2C)cc1
–	1.5 µM	COC(=O)c1ccc(-n2c(C)cc(C(=O)CSc3ccc(NC(C)=O)cc3)c2C)cc1
inactive	–	COC(=O)c1ccc(-n2c(C)cc(C(=O)COc3cccc(N(C)C)c3)c2C)cc1
inactive	–	CCOc1ccc(-n2c(C)cc(C(=O)CSc3ccc(OC)cc3)c2C)cc1
